Measured values: US11446298B2, “Pyrimidine derivatives” (Idorsia Pharmaceuticals Ltd, priority 2017, dated 2022)

What was measured:
Assay type in all cases: cell-based
[1] = target: T1, PTGER2 (EP2) (Homo sapiens, UniProt P43116); experiment: hEP2 b-Arrestin Assay (PathHunter HEK 293 PTGER2 b-arrestin cells, PGE2 5 μM); conditions: antagonistic activity, beta-arrestin assay, HEK 293 PTGER2 cells, PGE2 5 μM (EC80); read-out: hEP2 b-arr IC50
T1 construct: host or cells: HEK 293 (PathHunter, stably transfected)
Method: (§1) The antagonistic activities of the compounds of formula (I) on the EP2 and EP4 receptors are also determined in accordance with the following experimental method.
The assay is using the PathHunter™ HEK 293 PTGER2 and PTGER4 b-arrestin cell lines from DiscoverX. The system is based on the Enzyme Fragment Complementation Technology. Two complementing fragments of the b-galactosidase enzyme are expressed within stably transfected cells. The larger portion of b-gal, termed EA for Enzyme Acceptor, is fused to the C-terminus of b-arrestin 2. The smaller fragment, termed ProLink™ tag, is fused to PTGER2 (EP2) or PTRGER4 (EP4) at the C-terminus. Upon activation, b-arrestin is recruited which forces the interaction of ProLink and EA, allowing complementation of the two fragments of b-gal and the formation of a functional enzyme which is capable of hydrolysing the substrate and generating a chemiluminescent signal.
The HEK 293 PTGER2 b-arrestin cells (DiscoverX 93-021-4C1) are detached from culture dishes with a cell dissociation buffer (Invitrogen, 13151-014), and collected in growing medium (GM: DMEM+Glutamax-I (Invitrogen 32430)/10% FCS, 1% Penicilin/streptomycin). 5000 cells per well of a 384 well plate (white with white bottom Greiner 781080) are seeded in 20 μl per well of GM. Plate is incubated at 37° C., 5% CO2 for 24 hours.
Stock solutions of test compounds are made at a concentration of 10 mM in DMSO, and serially diluted in DMSO to concentrations required for inhibition dose response curves (tested concentration range 10 μM-2 nM or 1 μM-0.2 nM).
PGE2 (Cayman 14010, stock solution: 10 mM in DMSO) is used as agonist at 5 μM final concentration, corresponding to EC80.
Five microliters of diluted compounds are transferred into the assay plate. Plate is pre-incubated 15 minutes at 37° C. Then five microliters of PGE2 (final conc. 5 μM) are transferred into the assay plate. Plate is incubated 120 minutes at 37° C.
PathHunter Glo Detection Kit components are thawed and mix according to manufacturer's instructions: 1 part Galacton Star Substrate with 5 parts Emerald II™ Solution, and 19 parts of PathHunter Cell Assay Buffer, respectively. Twelve μl of reagent are transferred to the assay plate and incubate for 1 hour at room temperature in the dark. Luminescence counts are read on a BMG Fluostar Optima reader according to manufacturer's instructions.
For each compound concentration calculate of the percentage of activity compared to DMSO control value as average ±STDEV. (each concentration is measured in duplicate)
(§2) IC50 values and curves are generated with XLfit software (IDBS) using Dose-Response One Site model 203. When compounds were measured multiple times, mean values are given.

[2] = target: T2, EP2 (Homo sapiens, UniProt P43116); experiment: hEP2 cAMP Assay (SF295 glioblastoma cells, HTRF cAMP, PGE2 75 nM); conditions: antagonistic activity, PGE2 75 nM (EC80)
T2 construct: SF295 glioblastoma cells express high endogenous EP2 and no EP4; host or cells: SF295 glioblastoma cells
Method: as §1
(§3) Human tumor cell lines expressing endogenously either EP4 or EP2 are used and cAMP accumulation in cells upon PGE2 stimulation is monitored. SF295 glioblastoma cells express high endogenous EP2 and no EP4, whereas BT549 breast cancer cells, express high endogenous EP4 levels and very low EP2 levels.
(§4) As a detection method for cAMP the HTRF (homogeneous time resolved fluorescence) Cisbio kit (HTRF cAMP dynamic 2 kit 20′000 tests Cisbio Cat. #62AM4PEC) was used, which is based on a competitive immunoassay using a Cryptate-labeled anti-cAMP antibody and d2-labeled cAMP. Native cAMP produced by cells or unlabeled cAMP (for the standard curve) compete with exogenously added d2-labeled cAMP (acceptor) for binding to monoclonal anti-cAMP-Eu3+Cryptate (donor). A FRET signal (Fluorescence Resonance Energy Transfer) is obtained only if the labeled anti-cAMP antibody binds the d2 labelled cAMP, thus the specific signal (i.e. energy transfer) is inversely proportional to the concentration of cAMP in the standard or sample.
(§5) The SF295 cells (NCI/No. 0503170) are detached from culture dishes with a cell dissociation buffer (Invitrogen, 13151-014), and collected in growing medium (GM: RPM11640 (Invitrogen 21875)/10% FCS, 1% Penicilin/streptomycin). Cells are counted washed and resuspended in assay buffer (AB; HBSS, 20 mM HEPES, 0.2% BSA; 2 mM IBMX). 4′000 cells in 5 μL of AB are seeded per well of a small volume 384 well plate (black with flat bottom, Greiner 784076).
(§6) Stock solutions of test compounds are made at a concentration of 10 mM in DMSO, and serially diluted in DMSO to concentrations required for inhibition dose response curves (tested concentration range 30 μM-0.4 nM; 30 μM-0.015 nM or 1 μM-0.01 nM).
PGE2 (Cayman 14010, stock solution: 75 μM in DMSO) is used as agonist at 75 nM final concentration, corresponding to EC80.
(§7) 2.5 μL of diluted compounds are transferred into the assay plate. Plate is pre-incubated 45 minutes at room temperature. Subsequently, 2.5 μL of PGE2 (final conc. 75 nM) are transferred into the assay plate. Plate is incubated 30 minutes at room temperature. Five μL of each donor (anti-cAMP cryptate) and acceptor (cAMP-d2) are added and the plate is incubated another hour at room temperature in the dark and then read using a BMG LABTECH PHERAstar reader (Excitation: 337 nm, Emission: 620 and 665 nm).
(§8) The obtained Delta F (fluorescence) values (665 nm/620 nM) are converted into % cAMP values using the measurements of the cAMP calibrator provided in the kit. For each compound concentration the percentage of cAMP compared to DMSO control value as average ±STDEV (each concentration is measured in duplicate) is calculated.
as §2

[3] = target: T3, EP4 (Homo sapiens, UniProt P35408); experiment: hEP4 cAMP Assay (BT549 breast cancer cells, HTRF cAMP, PGE2 6 nM); conditions: antagonistic activity, PGE2 6 nM (EC80)
T3 construct: BT549 breast cancer cells, express high endogenous EP4 levels and very low EP2 levels; host or cells: BT549 breast cancer cells
Method: as §1, §3, §4
as §5, with “BT549” for “SF295”, “0507282)” for “0503170)”, “RPMI1640” for “RPM11640”
as §6
PGE2 (Cayman 14010, stock solution: 6 uM in DMSO) is used as agonist at 6 nM final concentration, corresponding to EC80.
as §7, with “6” for “75”, “5” for “Five”
as §8, §2

T3 sequence (P35408 whole entry): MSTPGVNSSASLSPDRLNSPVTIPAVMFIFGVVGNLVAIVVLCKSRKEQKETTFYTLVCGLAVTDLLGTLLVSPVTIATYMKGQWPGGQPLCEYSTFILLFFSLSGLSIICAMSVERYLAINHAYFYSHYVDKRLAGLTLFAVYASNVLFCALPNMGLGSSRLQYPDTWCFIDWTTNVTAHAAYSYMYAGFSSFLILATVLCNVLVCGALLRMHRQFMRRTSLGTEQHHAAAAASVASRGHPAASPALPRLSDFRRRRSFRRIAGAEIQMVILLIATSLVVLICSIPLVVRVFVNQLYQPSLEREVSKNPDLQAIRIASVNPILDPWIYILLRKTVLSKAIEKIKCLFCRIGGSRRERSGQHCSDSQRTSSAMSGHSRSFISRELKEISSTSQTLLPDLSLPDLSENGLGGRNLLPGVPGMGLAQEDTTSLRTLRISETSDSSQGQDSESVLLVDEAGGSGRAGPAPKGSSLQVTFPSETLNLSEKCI
T2 sequence (P43116 whole entry): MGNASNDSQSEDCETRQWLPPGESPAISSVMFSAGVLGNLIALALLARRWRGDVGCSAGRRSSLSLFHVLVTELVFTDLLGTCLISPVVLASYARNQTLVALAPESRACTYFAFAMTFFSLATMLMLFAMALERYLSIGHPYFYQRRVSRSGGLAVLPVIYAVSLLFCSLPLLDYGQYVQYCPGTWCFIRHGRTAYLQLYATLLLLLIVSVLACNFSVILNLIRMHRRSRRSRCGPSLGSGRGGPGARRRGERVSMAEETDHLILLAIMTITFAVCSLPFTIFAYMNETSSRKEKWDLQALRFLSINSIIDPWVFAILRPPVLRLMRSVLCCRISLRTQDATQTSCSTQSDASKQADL
T1 sequence (P43116 whole entry): as above

SMILES | IC50 [1] | IC50 [2] | IC50 [3]
CCOc1cc(-c2cc(NCCc3c(OC)ccc4ccccc34)ncn2)ccc1C(=O)O [Example 3, 2-Ethoxy-4-{6-[2-(2-methoxy-naphthalen-1-yl)-ethylamino]-pyrimidin-4-yl}-benzoic acid] | 17 nM | 11 nM | 292 nM
CCOc1cc(-c2cc(NCCc3c(Br)ccc4ccccc34)ncn2)ccc1C(=O)O [Example 7, 4-{6-[2-(2-Bromo-naphthalen-1-yl)-ethylamino]-pyrimidin-4-yl}-2-ethoxy-benzoic acid] | 22 nM | 67 nM | 909 nM
O=C(O)c1ccc(-c2cc(NCCc3cccc4ccccc34)ncn2)cc1OC1CCC1 [Example 8, 2-Cyclobutoxy-4-[6-(2-naphthalen-1-yl-ethylamino)-pyrimidin-4-yl]-benzoic acid] | 71 nM | 133 nM | 568 nM
Cc1ccc(CCNc2cc(-c3ccc(C(=O)O)c(OC4CCC4)c3)ncn2)c2ccccc12 [Example 17, 2-Cyclobutoxy-4-{6-[2-(4-methyl-naphthalen-1-yl)-ethylamino]-pyrimidin-4-yl}-benzoic acid] | 95 nM | 281 nM | 270 nM
CCOc1cc(-c2cc(NCCc3ccc(F)c4ccccc34)ncn2)ccc1C(=O)O [Example 19, 2-Ethoxy-4-{6-[2-(4-fluoro-naphthalen-1-yl)-ethylamino]-pyrimidin-4-yl}-benzoic acid] | 129 nM | 93 nM | 646 nM
O=C(O)c1ccc(-c2cc(NCCc3ccc(F)c4ccccc34)ncn2)cc1OC1CCC1 [Example 20, 2-Cyclobutoxy-4-{6-[2-(4-fluoro-naphthalen-1-yl)-ethylamino]-pyrimidin-4-yl}-benzoic acid] | 73 nM | 199 nM | 680 nM
CCOc1cc(-c2cc(NCCc3cccc4cc(C)[nH]c34)ncn2)sc1C(=O)O [Example 37, 3-Ethoxy-5-{6-[2-(2-methyl-1H-indol-7-yl)-ethylamino]-pyrimidin-4-yl}-thiophene-2-carboxylic acid] | 126 nM | 53 nM | 596 nM
CCOc1cc(-c2cc(NCCc3c(OC)ccc4ccccc34)ncn2)ccc1OCC(=O)O [Example 47, (2-Ethoxy-4-{6-[2-(2-methoxy-naphthalen-1-yl)-ethylamino]-pyrimidin-4-yl}-phenoxy)-acetic acid] | 45 nM | 123 nM | 654 nM
CCOc1cc(-c2cc(NCCc3c(C)ccc4ccccc34)ncn2)ccc1OCC(=O)O [Example 48, (2-Ethoxy-4-{6-[2-(2-methyl-naphthalen-1-yl)-ethylamino]-pyrimidin-4-yl}-phenoxy)-acetic acid] | 22 nM | 147 nM | 729 nM
CCOc1cc(-c2cc(NCCc3cccc4c3ccn4C)ncn2)ccc1OCC(=O)O [Example 49, (2-Ethoxy-4-{6-[2-(1-methyl-1H-indol-4-yl)-ethylamino]-pyrimidin-4-yl}-phenoxy)-acetic acid] | 108 nM | 160 nM | 458 nM
CCOc1cc(-c2cc(NCCc3cccc4sccc34)ncn2)ccc1OCC(=O)O [Example 109] |  | 726 nM | 452 nM
CCOc1cc(-c2cc(NCCc3cccc4sccc34)ncn2)ccc1CC(=O)O [Example 110, {4-[6-(2-Benzo[b]thiophen-4-yl-ethylamino)-pyrimidin-4-yl]-2-ethoxy-phenyl}-acetic acid] |  | 878 nM | 597 nM
COc1ccc2cccc(CCNc3cc(-c4cc(C(F)(F)F)c(C(=O)O)s4)ncn3)c2n1 [Example 150, 5-{6-[2-(2-Methoxy-quinolin-8-yl)-ethylamino]-pyrimidin-4-yl}-3-trifluoromethyl-thiophene-2-carboxylic Acid] |  | 524 nM | 321 nM
COc1ccc2ccccc2c1CCNc1cc(-c2cc(OCCO)c(C(=O)O)s2)ncn1 [Example 156, 3-(2-Hydroxy-ethoxy)-5-{6-[2-(2-methoxy-naphthalen-1-yl)-ethylamino]-pyrimidin-4-yl}-thiophene-2-carboxylic acid] |  | 7 nM | 51 nM
